The text below walks through data of US20070213291A1, “Therapeutically useful synthetic oligonucleotides” (priority 1999, published 2007).

Data set [1] deals with OVCAR-3 human ovarian cancer cells. The data set can be described thus: Inhibition of OVCAR-3 cell proliferation (MTT). It is filed as cell-based. Conditions: 100 μg/ml, 48 h, 5×10^5 cells/ml. The method, then: (§1) Cells were seeded in 6 (1 ml/well), 24 (0.5 ml/well) or 96 (0.1 ml/well) well flat-bottom microplates and were maintained at 37° C. in a 5% CO2 atmosphere. Unless stated otherwise, 2.5×10^5 cells/ml were incubated with 0 μg/ml (control) and 100 μg/ml (treated) of 2 to 45 base sequences containing A, C, G and T for 48 h.
(§2) Cell proliferation was measured using dimethylthiazol-diphenyl-tetrazolium (MTT) reduction (Mosman et al. J. Immunol. Methods 65:55, 1983). MTT was measured at a wavelength of 570 nm using a multiplate spectrophotometer reader (ELX800, Bio-TEK Instruments Inc., Winooski, Vt.).
OVCAR-3 ovarian cancer cells are a p53 mutated, p21/waf-1/Cip deleted, metastatic human solid tumor model. OVCAR-3 cells (5×10^5 cells/ml) were incubated with 2, 6 and 18 base GT sequences and with a 6 base AGT sequence (Table 11).

Data set [2] has as its system SK-OV-3 human ovarian cancer cells. Description: Inhibition of SK-OV-3 cell proliferation (MTT). It is filed as cell-based. Conditions: 100 μg/ml, 48 h, 5×10^5 cells/ml. The method, then: as §1, §2
SK-OV-3 ovarian cancer cells are a p53 mutated, p21/waf-1/Cip deleted, p15^ink4B deleted, p16^Ink4 deleted, metastatichuman solid tumor model. SK-OV-3 cells (5×10^5 cells/ml) were incubated with 2, 6 and 18 base GT sequences (Table 12).

Data set [3] deals with EL-4 murine T lymphoma cells. The data set can be described thus: Inhibition of EL-4 cell proliferation (MTT). It is filed as cell-based. To be noted: 100 μg/ml, 48 h. The method, then: as §1, §2
EL-4 murine lymphoma T cells are a suspension tumor model. EL-4 murine lymphoma T cells were incubated with 6, 18, 27 and 33 base GT sequences and with a 15 base ACG sequence (Table 18).

For data set [4], the system named is L-1210 murine leukemia cells. Description: Inhibition of L-1210 cell proliferation. Type of data set: cell-based. The method, then:
as §1, §2

The subject of data set [5] is MCF-7 human breast cancer cells. Description: Cell cycle stage in MCF-7 cells (propidium iodide flow cytometry). Type of data set: cell-based. To be noted: MCF-7, 5×10^5 cells/ml, 24 h. How it is done:
Cell cycle stage was determined using a […]™ PLUS DNA commercial kit (Becton Dickinson). Briefly, nuclei from cells were obtained by dissolving the cell membrane in a nonionic detergent, eliminating the cell cytoskeleton and nuclear proteins with trypsin, digesting the cellular RNA with RNase and stabilizing the nuclear chromatin with spermine. Propidium iodide was added to the cell nuclei and their fluorescence was analyzed in a flow cytometer equipped with electronic doublet discrimination capability (FACSCalibur, Becton Dickinson, San Jose, Calif.). Accumulation of cells in G0/G1, early S (SE), mid S (SM), late S (SL) or G2/M phases of the cell cycle was analyzed using MODFIT LT software (Verity Software House Inc., Topsham, Mass.).
Exponentially growing Jurkat human leukemia T cells (Table 28) and MCF-7 human breast cancer cells (5×10^5 cells/ml) (Table 29) were incubated for 24 h with 2, 6, 15, 18, 27 and 45 base sequences containing A, C, G and T. The cells were collected and centrifuged and cell cycle stage was determined.
Background: A flow cytometer gives signals particle by particle.

The test system of the next data set is caspase 3. The data set can be described thus: Caspase 3 activation, colorimetric (p-nitroanilide peptide cleavage). Conditions: Jurkat, 72 h, 100 μg/ml. Type of data set: cell-based, human. The method, then: To determine caspase activation, control and treated cells are washed, fixed, permeabilized and incubated with an FITC-conjugated antibody that recognizes the active form of the caspase (Pharmingen, San Diego, Calif.) using the conditions recommended by the manufacturer. Fluorescence associated with active caspase 3 is analyzed by flow cytometry on a FACSCALIBUR using the program CellQUEST (Becton Dickinson). Alternatively, caspase activation is determined colorimetrically using an assay based on the cleavage of a caspase-specific peptide conjugated to the color reporter molecule p-nitroanilide, which can be quantitated spectrophotometrically at a wavelength of 405 nm.
Jurkat T cell leukemia cells were incubated for 72 h with 33 base GT SEQ ID NO:66; 11 base GT SEQ ID NO:81 (bases 1-11 of GT SEQ ID NO:66), 11 base GT SEQ ID NO:82 (bases 12-22 of GT SEQ ID NO:66), 11 base GT SEQ ID NO:83 (bases 23-33 of GT SEQ ID NO:66) and 15 base ACG SEQ ID NO:67. Active caspase 3 (17-22 kDa) was determined using FITC conjugated antibody (Clone: C92-605) as in Example 28.
Caspase 3 activation also was determined colorimetrically as in Example 28.
Jurkat T cell leukemia cells were incubated for 72 h with 6 base GT SEQ ID NO:25. Caspase 3 activation was determined colorimetrically as in Example 28.

Another data set relates to caspase 7. Description: Caspase 7 activation by Western blot. It is filed as cell-based, human. Conditions: Jurkat, 72 h, 100 μg/ml (FIG. 3B). The method, then:
(§3) Jurkat T cell leukemia cells were incubated for 72 h with 6 base GT SEQ ID NO:25. The cells were washed 3× with PBS, lysed with 10 mM HEPES, pH 7.5 containing 5 mM MgCl2, 1 mM dithiothreitol, 1.5 nM aprotinin, 10 mM leupeptin and 2.5 μm Na orthovanadate, and the protein content of the lysate was determined (Bradford J. Anal. Biochem. 72:248, 1976).
(§4) Activated caspase 7 and PARP cleavage were detected by Western blot analysis. Lysate was mixed with Laemmli buffer (Laemmli U. Nature […], 1970), shaken, and heated at 100° C. for 4 min. […] The separated proteins were electroblotted onto a PVDF membrane. Equal protein loading was monitored by Ponceau red staining of the membrane.
(§5) The membrane was blocked overnight at 4° C. with a buffer containing 1% Tris-buffered saline (2 mM Tris-HCl, 13.7 mM NaCl, pH 7.6, and 0.1% polyethylenesorbitan monolaurate (TWEEN 20) (TBST) +5% non-fat dry milk. The membrane was washed and was incubated for 1 h at RT with a mouse monoclonal IgG anti-caspase 7 antibody (Pharmingen) (diluted 1:1000 in TBST+1% BSA) or with a mouse monoclonal IgG anti-PARP antibody (diluted 1:1000 in TBST+1% BSA) (Pharmingen). IgG bound to caspase 7 or to PARP was detected with sheep anti-mouse IgG conjugated to horseradish peroxidase (diluted 1:1000 in TBST+5% non-fat dry milk) (Pharmingen). […]
(In general: In western blotting, separated proteins are transferred to a membrane and probed.)

The subject of a further data set is PARP. The data set can be described thus: PARP cleavage by Western blot. To be noted: Jurkat, 72 h, 100 μg/ml (FIG. 3B). Type of data set: cell-based, human. How it is done:
as §3, §4, §5

Data set [6] is described as follows: Melting temperature (Tm) of sequences. Type of data set: physicochemical.
The test system of data set [7] is MCF-7 human breast cancer cells. Description: MCF-7 human breast tumor xenografts in female nude BALB/c mice. It is filed as in vivo. To be noted: after 4 weeks of treatment, compared with other groups (group 1 saline). The method, then: MCF-7 human breast cancer cells are implanted subcutaneously as xenografts, in female nude BALB/c mice. The mice are divided into 6 groups of 10 mice. […] After 4 weeks of treatment, the mice are sacrificed and tumor mass is determined.

“And” between values parts separate entries of the source, which are not always exact repeats. Equal values may be shown once.

Take GGGTGG [SEQ ID NO:25]: in [1], the “% INHIBITION of OVCAR-3 human ovarian cancer cell proliferation” value was 15% and 14%. The “% INHIBITION of SK-OV-3 human ovarian cancer cell proliferation” value in data set [2] was 12%. The “% INHIBITION of EL-4 murine T lymphoma cell proliferation” value in data set [3] was 4% and 1%. Also, the “% inhibition of L-1210 murine cancer cell proliferation” value in data set [4] was determined as 8%. In data set [5], the “% cells in phase: G0/G1” value is recorded as 21.9%, the “% cells in phase: G2/M” value turned out to be 17.4%, the “% cells in phase: SE” value is recorded as 27.6% and the “% cells in phase: SL” value stood at 10.9%. Further, in data set [5], the “% cells in phase: SM” value was 22.2% and the “Arrest (cell cycle)” value is given as “End SM”. For the same sequence, the “caspase 3 activity greater than in control cells” value in the data set with caspase 3 was 323%. Further, the “processing of inactive pro-caspase 7 to active caspase 7” value in the data set on caspase 7 was “induced processing of inactive pro-caspase 7 (30 kDa) to active caspase 7 (19-20 kDa)”. Besides, the PARP cleavage entry in the data set with PARP is “active PARP to its inactive 85 kDa degradation product”. For the same sequence, the “melting temperature (Tm)” value in data set [6] was 2.5 °C. The tumor mass result in data set [7] was “less tumor mass than group 1 mice”.
For the sequence GTGTGT [SEQ ID NO:10], the “% INHIBITION of EL-4 murine T lymphoma cell proliferation” value in data set [3] is listed as −2%.
